Measured values as given in PMC9177418, “Global analysis of biosynthetic gene clusters reveals conserved and unique natural products in entomopathogenic nematode-symbiotic bacteria” (Nature Chemistry, 2022).

How the values were obtained:
Type in all cases: biochemical
[1] = molecular target: T1, yeast 20S proteasome β5 subunit (chymotrypsin-like) (Saccharomyces cerevisiae, UniProt P30656); test: X-ray crystal structure at […] Å; fluorogenic Suc-Leu-Leu-Val-Tyr-AMC inhibition assay with purified yCP
T1 construct: gene PRE2; purified yeast 20S proteasome core particle (yCP); with other subunits of the yeast 20S proteasome core particle (α1–7β1–7β1–7α1–7)
T1 sequence (P30656 76-287): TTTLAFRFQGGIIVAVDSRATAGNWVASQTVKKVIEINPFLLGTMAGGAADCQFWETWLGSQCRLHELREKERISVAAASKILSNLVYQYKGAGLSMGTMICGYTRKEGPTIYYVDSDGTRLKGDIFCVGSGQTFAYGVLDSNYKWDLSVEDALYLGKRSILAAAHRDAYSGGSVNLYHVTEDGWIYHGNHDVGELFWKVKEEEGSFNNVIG

[2] = molecular target: T2, yeast 20S proteasome β1 subunit (caspase-like) (Saccharomyces cerevisiae, UniProt P38624); test: X-ray crystal structure ([…] soak; ligand map diffuse at β[…]); fluorogenic inhibition assay with purified yCP
T2 construct: gene PRE3; purified yeast 20S proteasome core particle (yCP); with other subunits of the yeast 20S proteasome core particle (α1–7β1–7β1–7α1–7)
T2 sequence (P38624 20-215): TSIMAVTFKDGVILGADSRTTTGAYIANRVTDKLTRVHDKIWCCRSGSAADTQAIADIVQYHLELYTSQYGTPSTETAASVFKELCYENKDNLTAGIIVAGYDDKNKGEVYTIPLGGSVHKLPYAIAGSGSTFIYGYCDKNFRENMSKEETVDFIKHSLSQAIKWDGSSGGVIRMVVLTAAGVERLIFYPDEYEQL

[3] = molecular target: T3, yeast 20S proteasome β2 subunit (trypsin-like) (Saccharomyces cerevisiae, UniProt P25043); test: as above
T3 construct: gene PUP1; purified yeast 20S proteasome core particle (yCP); with other subunits of the yeast 20S proteasome core particle (α1–7β1–7β1–7α1–7)
T3 sequence (P25043 30-261): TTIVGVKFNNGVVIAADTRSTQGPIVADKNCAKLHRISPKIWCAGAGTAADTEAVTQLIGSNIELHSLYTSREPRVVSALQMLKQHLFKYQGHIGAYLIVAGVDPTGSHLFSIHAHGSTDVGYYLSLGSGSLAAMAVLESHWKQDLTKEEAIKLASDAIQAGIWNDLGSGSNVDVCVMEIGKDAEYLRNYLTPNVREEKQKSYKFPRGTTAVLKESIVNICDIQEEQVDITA

Question: For CC(C)[C@@H]1C(=O)O[C@H]1C(=O)O [compound 1, 3-isopropyl-4-oxo-2-oxetanecarboxylic acid], which IC50 [1] is on record?
Answer: Its IC50 is 6.2 µM.

Question: And the IC50 [2]?
Answer: The IC50 was 625 µM.

Question: And the IC50 [3]?
Answer: Its IC50 is 60 µM.
